Assay: xn = mol fraction of the nth substance listed
Conditions: 303.15 K, 101 kPa, Liquid; for viscosity: Capillary tube (Ostwald / Ubbelohde) method; for mass density: Vibrating tube method

C1CCCCC1 [cyclohexane] + CCCCN(CCCC)CCCC
x2 = 0
Conditions | mass density [kg/m3] | viscosity [mPa·s]
– | 769.16 | 0.819

C1CCCCC1 [cyclohexane] + CCCO
Conditions | mass density [kg/m3] | viscosity [mPa·s]
x2 = 0 | 769.16 | 0.819
x2 = 0.1021 | 769.52 | 0.832
x2 = 0.2112 | 770.68 | 0.872
x2 = 0.3122 | 772.37 | 0.922
x2 = 0.4211 | 774.63 | 0.986
x2 = 0.5151 | 776.9 | 1.053
x2 = 0.6203 | 779.94 | 1.148
x2 = 0.7208 | 783.15 | 1.264
x2 = 0.8143 | 786.73 | 1.398
x2 = 0.9079 | 790.83 | 1.555

C1CCCCC1 [cyclohexane] + CCN(CC)CC
x2 = 0
Conditions | mass density [kg/m3] | viscosity [mPa·s]
– | 769.16 | 0.819

CCCO [propan-1-ol] + C1CCCCC1
x1 = 1
Conditions | mass density [kg/m3] | viscosity [mPa·s]
– | 795.66 | 1.727

CCCO [propan-1-ol] + CCCCN(CCCC)CCCC
x2 = 0
Conditions | mass density [kg/m3] | viscosity [mPa·s]
– | 795.66 | 1.727

CCCO [propan-1-ol] + CCN(CC)CC
x2 = 0
Conditions | mass density [kg/m3] | viscosity [mPa·s]
– | 795.66 | 1.727

CCCCN(CCCC)CCCC [tributylamine] + C1CCCCC1
Conditions | mass density [kg/m3] | viscosity [mPa·s]
x1 = 0.1023 | 768.32 | 0.848
x1 = 0.2014 | 768.09 | 0.878
x1 = 0.3008 | 768.17 | 0.914
x1 = 0.4016 | 768.42 | 0.947
x1 = 0.5002 | 768.78 | 0.985
x1 = 0.6018 | 769.15 | 1.025
x1 = 0.7021 | 769.57 | 1.058
x1 = 0.8012 | 769.85 | 1.096
x1 = 0.9024 | 770.12 | 1.13
x1 = 1 | 770.39 | 1.167

CCCCN(CCCC)CCCC [tributylamine] + CCCO
Conditions | mass density [kg/m3] | viscosity [mPa·s]
x1 = 0.0986 | 791.71 | 1.695
x1 = 0.1991 | 788.31 | 1.66
x1 = 0.2978 | 785.47 | 1.619
x1 = 0.4984 | 780.18 | 1.514
x1 = 0.5992 | 777.82 | 1.449
x1 = 0.6031 | 777.75 | 1.445
x1 = 0.6981 | 775.71 | 1.378
x1 = 0.7989 | 773.78 | 1.302
x1 = 0.8988 | 771.94 | 1.233
x1 = 1 | 770.39 | 1.167

CCN(CC)CC [triethylamine] + C1CCCCC1
Conditions | mass density [kg/m3] | viscosity [mPa·s]
x1 = 0.0995 | 761.78 | 0.697
x1 = 0.1947 | 755.57 | 0.614
x1 = 0.291 | 749.84 | 0.548
x1 = 0.3963 | 744.18 | 0.495
x1 = 0.4999 | 739.03 | 0.453
x1 = 0.5961 | 734.6 | 0.42
x1 = 0.6989 | 730.17 | 0.392
x1 = 0.7968 | 726.09 | 0.374
x1 = 0.8973 | 722.21 | 0.348
x1 = 1 | 718.45 | 0.33

CCN(CC)CC [triethylamine] + CCCO
Conditions | mass density [kg/m3] | viscosity [mPa·s]
x1 = 0.2007 | 783.21 | 1.189
x1 = 0.295 | 775.99 | 1.007
x1 = 0.3226 | 773.73 | 0.954
x1 = 0.393 | 767.95 | 0.845
x1 = 0.4852 | 760.11 | 0.719
x1 = 0.6128 | 749.28 | 0.574
x1 = 0.7308 | 739.53 | 0.47
x1 = 0.7637 | 736.85 | 0.444
x1 = 0.8776 | 727.89 | 0.375
x1 = 1 | 718.45 | 0.33

Source: the NIST ThermoML archive (doi:10.1016/j.tca.2008.09.006)
